Non-standard residues stand in square brackets, D forms with d. Residues, ends and D or L forms follow the SMILES beside them. pGlu = O=C1CC[C@@H](C(=O)O)N1
How the values were obtained:
[1] = system: lymphocytes forming the E-rosette; experiment: E-rosette formation, summary statement; assay type: cell-based
Protocol: (§1) The active E-rosette test was carried out according to a modified method of Wybran et al [Wybran et al: New Engl. J. Med. 292, 475 (1975)] by the lymphocites of healthy and autoimmune patients (rheumatoid arthritis and systemic lupus erythematosus). To 50 μl of a lymphocyte cell suspension 10^-3 -10^-11 moles/lit. solutions of the test material were added and the mixture was incubated in an atmosphere containing 5.0% of carbon dioxide, at 37° C. for 60 minutes. Thereafter 50 μlit. of a 1% sheep erythrocite suspension were added and the mixture was centrifuged at 1000 r.p.m. for 10 minutes followed by shaking with a modified Gallenkampf-shaker (shaking time: 30 sec, stroke: 8 cm, shaking frequency: 65/min.). The rosettes were fixed with a 0.1% glutaric aldehyde (50 μlit. for each tube, 3 min.). Lymphocytes bonding more than three sheep erythrocite were counted under a microscope and 4×100 cells were evaluated. The separated lymphocytes contain macrophages and polymorphonuclear cells (up to 10%) as an impurity. The number of the cells forming the rosettes was corrected by this value each case.

[2] = system: lymphocytes of healthy persons; experiment: Active E-rosette test, lymphocytes of healthy persons; assay type: cell-based, human; details: for E-rosette forming activity, percentage amount of active lymphocytes: n = 4
Protocol: as §1

[3] = system: plaque forming spleen cells (PFC); experiment: Effect on plaque forming spleen cells (PFC); assay type: in vivo, H. Wistar rats; details: for Ratio of the plaque formation produced by treated and untreated (control) animals: new-born animals
Protocol: (2) The number of the cells producing a specific antibody was determined by the method of Canningham Handbook of Experimental Immunology (editor: D. M. Weir), 2nd Volume, p. 285, Blackwell, Oxford-London (1978). According to this method from the spleen cells of immunized animals, sheep erythrocyte suspension and complement a homogenous suspension was prepared and it was placed into a chamber suitable for forming a single cell layer. Around the spleen cells lytic areolas are formed, the number of which is identical with the number of the cells producing a specific antibody (plaque forming cells, PFC).
The test animals, not later than 12 hour after birth, were given a single i.p. dose of the test material. According to the method (1) three different doses of each substance were tested. On the 7th day after immunization the plaque formation of the spleen cells isolated from the animals was examined.

[4] = system: lymphocytes of patients suffering from rheumatoid arthritis; experiment: Active E-rosette test, lymphocytes of rheumatoid arthritis patients; assay type: cell-based, human; details: for E-rosette forming activity, percentage amount of active lymphocytes: n = 4
Protocol: as §1

[5] = system: antibody production against sheep erythrocyte; experiment: Effect on antibody production (Ceglowski's method), agglutination titer; assay type: in vivo, H. Wistar rats
[6] = system: antibody production against sheep erythrocyte; experiment: as above; assay type: in vivo, H. Wistar rats; remark: listed apart in the source
Protocol: (1) The effect on antibody production was tested according to Ceglowski's method [Ceglowski: Ann. N.Y. Acad. Sci. 249, 343 (1975)]. New-born H. Wistar rats were treated with single 25 μlit. doses of 4×10^-3 -4×10^-7 moles/lit. of the test material (9 animals for each dose) at the latest at the 12th hour after birth. The 14-day animals were then immunized with a sheep erythrocyte suspension administering 0.5 ml. of a 5% sheep erythrocyte suspension each animal intraperitoneally. On the 7th day after immunization the animals were decapitated. The blood of three animals was mixed and from the serum obtained (after centrifuging at 3000 r.p.m. for 10 minutes) the titers for antibodies were determined by the method of Takatsy [Takatsy: Acta Microbiol. Acad. Sci. Hung. 3, 191 (1955)]. The results are expressed in agglutination titers. The titer corresponds to the […] dilution of the serum in which agglutination can be observed.

[7] = single i.p. dose 1.0·10^-4 mmoles
[8] = single i.p. dose 1.0·10^-6 mmoles
[9] = single i.p. dose 1.0·10^-8 mmoles

Row | SMILES | E-rosette forming activity, percentage amount of active lymphocytes ([2]; 10^-3 moles/liter) [%] | E-rosette forming activity, percentage amount of active lymphocytes ([2]; 10^-5 moles/liter) [%] | E-rosette forming activity, percentage amount of active lymphocytes ([2]; 10^-7 moles/liter) [%] | E-rosette forming activity, percentage amount of active lymphocytes ([2]; 10^-9 moles/liter) [%] | E-rosette forming activity, percentage amount of active lymphocytes ([2]; 10^-11 moles/liter) [%] | Ratio of the plaque formation produced by treated and untreated (control) animals [3, 7] | Ratio of the plaque formation produced by treated and untreated (control) animals [3, 8] | Ratio of the plaque formation produced by treated and untreated (control) animals [3, 9] | E-rosette forming activity, percentage amount of active lymphocytes ([4]; 10^-3 moles/liter) [%] | E-rosette forming activity, percentage amount of active lymphocytes ([4]; 10^-5 moles/liter) [%] | E-rosette forming activity, percentage amount of active lymphocytes ([4]; 10^-7 moles/liter) [%] | E-rosette forming activity, percentage amount of active lymphocytes ([4]; 10^-9 moles/liter) [%] | E-rosette forming activity, percentage amount of active lymphocytes ([4]; 10^-11 moles/liter) [%] | further results
1 | N=C(N)NCCC[C@H](N)C(=O)N[C@@H](CCCCN)C(=O)N[C@@H](CC(=O)O)C(=O)O [Arg--Lys--Asp, Arg-Lys-Asp] (H-Arg-Lys-Asp-OH) | 29.9 | 34.1 | 41.7 | 39.3 | 35.9 | 0.7 | 2.1 | 1.8 | 27.2 | 28.6 | 28.8 | 30.7 | 28.4 | Activity: increases the number of the lymphocytes forming the E-rosette [1]: active; Effect on E-rosette forming activity (in words) ([2]; 10^-7 moles/lit.): significant stimulating effect; In vivo effect on plaque forming spleen cells (in words) ([3]; in lower doses): about two-times increase; Effect on E-rosette forming activity (in words) ([4]; 10^-9 moles/lit.): significantly stimulated; Antibody production, agglutination titer (X ± S.D.) ([5]; single 25 μlit. dose of 4·10^-8 moles/liter to new-born rats): 6.0 ± 1.2; In vivo effect on the antibody production (in words) ([6]; 4.10^-6 moles/lit.): significant stimulating activity; Antibody production, agglutination titer (X ± S.D.) ([6]; single 25 μlit. dose of 4·10^-4 moles/liter to new-born rats): 6.0 ± 0; Antibody production, agglutination titer (X ± S.D.) ([6]; single 25 μlit. dose of 4·10^-6 moles/liter to new-born rats): 7.3 ± 0.6
2 | CC(C)[C@H](NC(=O)[C@H](CC(=O)O)NC(=O)[C@H](CCCCN)NC(=O)[C@H](CCCNC(=N)N)NC(=O)[C@@H]1CCC(=O)N1)C(=O)N[C@@H](Cc1ccc(O)cc1)C(=O)O [Glp--Arg--Lys--Asp--Val--Tyr, Glp-Arg-Lys-Asp-Val-Tyr] ([pGlu]RKDVY-OH) | 29.9 | 22.5 | 29.4 | 25.5 | 29.9 |  |  |  | 24.1 | 22.7 | 22.6 | 26.6 | 24.9 | Antibody production, agglutination titer (X ± S.D.) ([5]; footnote y: concentration 2·10^-1 moles/liter): 5.5 ± 0.6; In vivo effect on the antibody production (in words) ([6]; 2.10^-3 moles/lit.): inhibiting activity; Antibody production, agglutination titer (X ± S.D.) ([6]; column 4·10^-3 moles/liter, footnote x: concentration is half of the head value): 3.0 ± 1.0; Antibody production, agglutination titer (X ± S.D.) ([6]; column 4·10^-5 moles/liter, footnote x: concentration is half of the head value): 5.2 ± 0.8
3 | C[C@H](NC(=O)[C@H](CC(=O)O)NC(=O)[C@H](CCCCN)NC(=O)[C@@H](N)CCCNC(=N)N)C(=O)O [Arg--Lys--Asp--Ala, Arg-Lys-Asp-Ala] (H-RKDA-OH) | 41.2 | 39.6 | 40.8 | 36.4 | 40.5 | 4.9 | 1.9 | 3.0 | 28.6 | 24.5 | 25.8 | 25.3 | 27.9 | Effect on E-rosette forming activity (in words) ([2]; 10^-11 moles/lit.): stimulating effect; In vivo effect on plaque forming spleen cells (in words) ([3]; in all tested doses): substantial increase; In vivo effect on the antibody production (in words) ([6]; 4.10^-7 moles/lit.): significant stimulating activity; Antibody production, agglutination titer (X ± S.D.) ([6]; single 25 μlit. dose of 4·10^-3 moles/liter to new-born rats): 10.5 ± 1.5; Antibody production, agglutination titer (X ± S.D.) ([6]; single 25 μlit. dose of 4·10^-5 moles/liter to new-born rats): 11.5 ± 0.9; Antibody production, agglutination titer (X ± S.D.) ([6]; single 25 μlit. dose of 4·10^-7 moles/liter to new-born rats): 12.0 ± 0
